Experimental data reported in publication PMC3691018 (Bioorganic & medicinal chemistry letters, 2013).

Tested on: HeLa
Experiment: not given
Assay type: cell-based

**Q.** For `CNc1nc2ccc3nc(NC(=O)c4cc(OC)c(OC)c(OC)c4)sc3c2s1` [Compound 59], which “Selectivity index (SI = CC50/IC50)” value is on record?
**A.** greater than 500

Target: Bacillus anthracis DNA replicative helicase (Bacillus anthracis, UniProt A0A0J1HKT7)
Experiment: biochemical
Assay type: biochemical

**Q.** For `COc1cccc(C(=O)Nc2nc3ccc4nc(NCC(C)C)sc4c3s2)c1` [Compound 52], which “Activity vs B. anthracis helicase (in words)” value is on record?
**A.** modest inhibition

**Q.** With `COc1cccc(C(=O)Nc2nc3ccc4nc(NC5CCCCC5)sc4c3s2)c1` [Compound 53] as the compound, how does the “Activity vs B. anthracis helicase (in words)” value read?
**A.** significantly reduced activity

**Q.** `COc1cc(CNc2nc3ccc4nc(SC)sc4c3s2)cc(OC)c1OC` [Compound 64] was tested. Which “Activity vs B. anthracis helicase (in words)” value did it give?
**A.** lost activities

**Q.** And the IC50?
**A.** > 100 µM

**Q.** Which “Activity vs B. anthracis helicase (in words)” value does the source give for `COc1cc(/C=N/c2nc3ccc4nc(SC)sc4c3s2)cc(OC)c1OC` [Compound 65] here?
**A.** lost activities

**Q.** What about the IC50 of the same compound?
**A.** > 100 µM

**Q.** For `COc1cccc(C(=O)Nc2nc3ccc4nc(NC(C)C)sc4c3s2)c1` [Compound 51], which “Activity vs B. anthracis helicase (in words)” value is on record?
**A.** significantly reduced activity

**Q.** How did the “Activity vs B. anthracis helicase (in words)” value turn out when `COc1cccc(C(=O)Nc2nc3ccc4nc(NCc5ccccc5)sc4c3s2)c1` [Compound 54] was run?
**A.** significantly reduced activity
